According to article PMC6300282, “Sulphamethazine derivatives as immunomodulating agents: New therapeutic strategies for inflammatory diseases” (PLoS ONE, 2018):

Legend:
Type in all cases: cell-based
[1] = tested on: Pseudomonas aeruginosa (POA 286); test: Microplate Alamar Blue Assay, Pseudomonas aeruginosa; conditions: Pseudomonas aeruginosa; 200 μg/mL; NI = No inhibition; read-out: Percentage (%) Inhibition, Pseudomonas aerugenosa
Experimental: (§1) The anti-bacterial activity of synthesized compound were evaluated by the Microplate Alamar Blue Assay. Staphylococcus aureus (ATCC 25923), Pseudomonas aeruginosa(POA 286), Salmonella typhi (ATCC 14028), Bacillus subtilis ATCC 6633) and Escherichia coli (ATCC 12022) were used in this study as a standard bacterial strains and they were obtained from microbial bank of PCMD, International Center for Chemical and Biological Sciences, University of Karachi, Karachi-75270, Pakistan. The bacterial colonies grown in Trypton Soya Agar (TSA) (Oxoid Limited, UK) were inoculated in Mueller Hinton Broth (MHB) (Oxoid Limited, UK) and incubated overnight at 37 °C. Fully grown bacterial cultures were then diluted to adjust with 0.5 McFarland Turbidity Index (equivalent to 1.5 × 10^8 CFU/mL). Stock solutions (4 mg/mL) of different test compounds were prepared in DMSO and 10μL each of these stock solutions were placed in well of flat bottom, polystyrene, sterile 96-wells plate except the positive control wells (media + bacteria). This gives 200μg/mL concentrations of compounds in final 200 μL solution. Each compound was run in triplicates. Finally, bacterial suspension (5 x 10^6 CFU/mL) was added in each well. Plates were sealed by parafilm and incubated at 37 °C for 18–22 hrs. Next day, 20 μL of 0.02% resazurin sodium salt dye (Chem-Impex-Int’LInc) was added in each well and incubated in shaking incubator at 80 rpm, 37 °C for 2–3 hrs. The color change from blue to reddish pink indicates the growth of bacteria. For quantitative analysis, plates were read at 570 nm and 600 nm in Multiskan GOmicroplate spectrophotometer, (Thermo Scientific, USA). The % inhibition of bacterial growth was calculated using below mentioned formula.
(§2) For the calculation of the % difference in reduction between treated and control cells in cytotoxicity/proliferation assays: =(εOX)λ2Aλ1-(εOX)λ1Aλ2oftestagent/(εOX)λ2A°λ1-(εOX)λ1A°λ2ofpositivegrowthcontrol×100

[2] = tested on: isolated polymorphonuclear neutrophils (PMNs); test: Oxidative burst assay (luminol-enhanced chemiluminescence), isolated PMNs; conditions: Polymorphonuclear neutrophil, isolated human PMNs, zymosan, three doses 1, 10, 100 μg/mL, mean ± SD of three, read-out: Oxidative Burst Inhibition (IC50) PMNs
Description: Heparinized blood was obtained by vein puncture aseptically from healthy volunteers. The PMNs were isolated by ficoll-Hypaque density gradient method. The cells were isolated after centrifugation from the tube base. Cells were washed twice and suspended in Hank’s Balance salt solution (HBSS^--) (Ca^2+ and Mg^2+ free), RBCs were lysed using hypotonic solution. Cells were adjusted to their required concentration (1x10^6 cells/mL) using HBSS^++containing Ca^2+ and Mg^2+.
(§3) Luminol-enhanced chemiluminescence assay was performed, as described by Helfandet al., 1982 [17], with some modifications. Briefly 25 μL of diluted whole blood in HBSS^++ (Hanks Balanced Salt Solution, containing calcium chloride and magnesium chloride) [Sigma, St. Louis, USA] was incubated with 25 μL of three different concentrations of compounds (1, 10, and 100 μg/mL), each in triplicate. Control wells received HBSS^++ and cells, but no compounds. Test was performed in white half area 96-well plates [Costar, NY, USA], which was incubated at 37 °C for 15 minutes in the thermostat chamber of luminometer [Labsystems, Helsinki, Finland]. After incubation, 25 μL of serum opsonized zymosan (SOZ) [Fluka, Buchs, Switzerland] and 25 μL of intracellular reactive oxygen species detecting probe, luminol [Research Organics, Cleveland, OH, USA] were added into each well, except blank wells (containing only HBSS^++). The level of the ROS was recorded in luminometer in term of relative light units (RLU).

[3] = tested on: zymosan activated whole blood phagocytes; test: Oxidative burst assay (luminol-enhanced chemiluminescence), whole blood; conditions: human whole blood, serum opsonized zymosan, three doses 1, 10, 100 μg/mL, mean ± SD of three, NA = Not active, read-out: Oxidative Burst Inhibition (IC50) WB
Experimental: as §3

[4] = tested on: Salmonella typhi (ATCC 14028); test: Microplate Alamar Blue Assay, Salmonella typhi; conditions: Salmonella enterica; 200 μg/mL; NI = No inhibition; read-out: Percentage (%) Inhibition, Slamonella typhi
Experimental: as §1, §2

[5] = tested on: Escherichia coli (ATCC 12022); test: Microplate Alamar Blue Assay, Escherichia coli; conditions: ATCC12022, 200 μg/mL, NI = No inhibition, read-out: Percentage (%) Inhibition, Escherichia coli
Experimental: as §1, §2

[6] = tested on: Bacillus subtilis (ATCC 6633); test: Microplate Alamar Blue Assay, Bacillus subtilis; conditions: ATCC6633, 200 μg/mL, NI = No inhibition, read-out: Percentage (%) Inhibition, Bacillus subtilis
Experimental: as §1, §2

Row | SMILES | inhibition at 200 µg/mL [1] [%] | IC50 [2] [µg/mL] | IC50 [3] [µg/mL] | inhibition at 200 µg/mL [4] [%] | inhibition at 200 µg/mL [5] [%] | inhibition at 200 µg/mL [6] [%]
1 | Cc1cc(C)nc(NS(=O)(=O)c2ccc(NC(=O)C(Br)CBr)cc2)n1 (stereo not drawn) [Compound 3, 2,3-Dibromo-N-(4-(N-(4,6-dimethylpyrimidin-2-yl)sulfamoyl)phenyl)propanamide] | 5.93 | 3.6 ± 0.05 | 6.5 ± 1.3 | < 0 | < 0 | < 0
2 | Cc1cc(C)nc(NS(=O)(=O)c2ccc(NC(=O)c3cccc(CCl)c3)cc2)n1 [Compound 4, 3-(Chloromethyl)-N-(4-(N-(4,6-dimethylpyrimidin-2-yl)sulfamoyl)phenyl)benzamide] | < 0 | 6.1 ± 0.08 | 7.3 ± 0.4 | < 0 | < 0 | < 0
3 | Cc1cc(C)nc(NS(=O)(=O)c2ccc(NC(=O)c3ccc(CCl)cc3)cc2)n1 [Compound 5, 4-(Chloromethyl)-N-(4-(N-(4,6-dimethylpyrimidin-2-yl)sulfamoyl)phenyl)benzamide] | < 0 | 3 ± 0.06 | 20.5 ± 2.2 | < 0 | < 0 | < 0
4 | Cc1cc(C)nc(NS(=O)(=O)c2ccc(NC(=O)c3cc(C(F)(F)F)cc(C(F)(F)F)c3)cc2)n1 [Compound 6, N-(4-(N-(4,6-dimethylpyrimidin-2-yl)sulfamoyl)phenyl)-3,5-bis(trifluoromethyl)benzamide] | < 0 | 3.4 ± 0.1 | 5.7 ± 0.8 | < 0 | < 0 | < 0
5 | Cc1cc(C)nc(NS(=O)(=O)c2ccc(NC(=O)c3cc(F)cc(F)c3)cc2)n1 [Compound 7, N-(4-(N-(4,6-dimethylpyrimidin-2-yl)sulfamoyl)phenyl)-3,5-difluorobenzamide] | < 0 | 2.9 ± 0.3 | 5.8 ± 0.6 | 13.1 | < 0 | < 0
6 | Cc1cc(C)nc(NS(=O)(=O)c2ccc(NC(=O)c3cc(F)cc(C(F)(F)F)c3)cc2)n1 [Compound 8, N-(4-(N-(4,6-dimethylpyrimidin-2-yl)sulfamoyl)phenyl)-3-fluoro-5-(trifluoromethyl)benzamide] | 4.31 | 2.4 ± 0.07 | 4.2 ± 0.2 | 29.4 | < 0 | < 0
7 | Cc1cc(C)nc(NS(=O)(=O)c2ccc(NC(=O)c3ccc(C(F)(F)F)c(F)c3)cc2)n1 [Compound 9, N-(4-(N-(4,6-dimethylpyrimidin-2-yl)sulfamoyl)phenyl)-3-fluoro-4-(trifluoromethyl)benzamide] | < 0 | 2.8 ± 0.05 | 5.7 ± 0.2 | 0.94 | < 0 | < 0
8 | Cc1cc(C)nc(NS(=O)(=O)c2ccc(NC(=O)c3ccc(F)c(C(F)(F)F)c3)cc2)n1 [Compound 10, N-(4-(N-(4,6-dimethylpyrimidin-2-yl)sulfamoyl)phenyl)-4-fluoro-3-(trifluoromethyl)benzamide] | < 0 | 3.4 ± 0.4 | 10.6 ± 0.5 | < 0 | < 0 | < 0
9 | Cc1cc(C)nc(NS(=O)(=O)c2ccc(NC(=O)C(C)Cl)cc2)n1 (stereo not drawn) [Compound 11, 2-Chloro-N-(4-(N-(4,6-dimethylpyrimidin-2-yl)sulfamoyl)phenyl)propanamide] | 26.5 | 6.2 ± 0.13 | 34.6 ± 1.2 | 29.6 | 3.93 | 35.1
10 | Cc1cc(C)nc(NS(=O)(=O)c2ccc(NC(=O)c3ccc(F)cc3)cc2)n1 [Compound 12, N-(4-(N-(4,6-dimethylpyrimidin-2-yl)sulfamoyl)phenyl)-4-fluorobenzamide] | < 0 | 3.3 ± 0.05 | 10.6 ± 0.5 | 19 | < 0 | < 0
11 | Cc1cc(C)nc(NS(=O)(=O)c2ccc(NC(=O)c3cccc([N+](=O)[O-])c3)cc2)n1 [Compound 13, N-(4-(N-(4,6-dimethylpyrimidin-2-yl)sulfamoyl)phenyl)-3-nitrobenzamide] | 6.58 | 4.9 ± 0.2 | 9.2 ± 0.6 | < 0 | < 0 | < 0
12 | Cc1cc(C)nc(NS(=O)(=O)c2ccc(N)cc2)n1 [compound 1, Sulfamethazine, reference compound] | 8.92 | 5.2 ± 0.05 | 8.9 ± 1.3 | < 0 | < 0 | < 0
